# Literature values in patent EP0062861A1, “Isophorone-free formulations of the herbicide propanyl” (Montedison S.p.A., priority 1981, dated 1982).
# Tested on: mammalians
# Conditions: toxicity towards mammalians
smiles,measurement,value
"CCC(=O)Nc1ccc(Cl)c(Cl)c1 [Propanyl, N-(3,4-dichlorophenyl)-propionamide]",LD 50,1384 mg/kg
